In patent US11458189B2, “Cytoprotective drugs” (BALMES TRANSPLANTATION, priority 2017, dated 2022):
Starred links: 1 amine or outer side, 2 acyl side, 3 side chain; linkers in the order of their positions; H or OH if unused. Positions of bridges follow the written chain, without caps; N, C: chain ends. Non-standard residues stand in square brackets, D forms with d. Residues, ends and D or L forms follow the SMILES beside them. ξ: configuration not given here. *: point of attachment. pTerphenylCO(4''-OnC5H11) = CCCCCOc1ccc(-c2ccc(-c3ccc(C(=O)*)cc3)cc2)cc1; Orn(4R-OH,5R-OH) = O=C([C@H](C[C@@H](O)[C@@H](O)N[*:3])N[*:1])[*:2]; hTyr(3S-OH,4S-OH) = N[C@H](C(=O)O)[C@H](O)[C@@H](O)c1ccc(O)cc1; Pro(3S-OH,4S-Me) = C[C@H]1CN[C@H](C(=O)O)[C@H]1O; ξPro(4R-OH) = O=C(O)C1C[C@@H](O)CN1

Tested on: Rat Primary Kidney Glomerular Endothelial cells
Assay: Oxygen and glucose deprivation followed by replenishment, cell survival (calcein AM), rat glomerular endothelial cells;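 as to Survival rate (%): 100% is hypoxia control with glucose and 0% is untreated OGD control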
Type: cell-based
Experimental: Anidulafungin and micafungin were tested on Human Renal Glomerular Endothelial Cells (HRGEC, Innoprot P10665), on Human Renal Proximal Tubular Epithelial Cells (HRPTEpiC, Innoprot P10662), on Human Astrocytes (HA, caltag SC-1800), on Human Cardiac Microvascular Endothelial Cells (HCMEC, Caltag SC-6000), on Human Hepatic Sinusoidal Endothelial Cells (HHSEC, Caltag SC-5000), on Rat Primary Kidney Glomerular Endothelial cells (Cellbiologics, RN-6014G) and on Bovine Brain Microvascular Endothelial Cells (BBMEC, Caltag SC-B100).
In a first phase, these isolated, purified and cryopreserved cells are thawed and multiplied according to the supplier's recommendations in T75 or T175 flasks pre-coated with 2 μg of fibronectin/[…] (CORNING) for HRGEC, HCMEC, HHSEC and BBMEC, or 2 μg poly-L-lysin/cm^2 (Caltag SC-0403) for HRPTEpiC and HA, or 15 mL/flask 175 cm^2 gelatin-based solution (Cellbiologics) in the presence of endothelial cell supplemented growth medium ECM (P60104, INNOPROT, Caltag, SC-1001) for HRGEC, HCMEC, HHSEC, RPKGEC or BBMEC, or astrocyte cell supplemented growth medium AM (Caltag SC-1801) for HA or epithelial cell supplemented growth medium EpiCM (P60106, INNOPROT) for HRPTEpiC, at 37° C. under 5% CO2 and saturated humidity until their confluency. They are then harvested by trypsinization according to the method described by the supplier for exactly 5 minutes and then reseeded in new flasks a maximum of three times.
To carry out the oxygen and glucose deprivation test followed by their replenishment, the cells will be seeded in 96-well black plates with transparent flat bottom (GREINER). Once a sufficient number of cells has been obtained to allow seeding of 2000 to 15000 cells per well of 96-well plates depending on the cell type, the cells are seeded in these 96-well plates previously coated with an extracellular matrix as listed above for the flasks. The cells are cultured for 5 to 8 days according to the cell type, in the presence of the same growth medium as in the flask as described above except for HRGEC and HRPTEpiC for which DMEM (DUTSCHER) with 1 g/L of supplemented glucose is used, at 37° C. under 5% CO2 and saturated humidity to obtain confluency.
On the first day of oxygen and glucose deprivation, (5th, 6th, 7th or 8th day of culture), the culture conditions are drastically changed. The medium of all plates is removed and replaced by DMEM (DUTSCHER) medium without glucose and supplemented only with 1% penicillin-streptomycin (DUTSCHER). Anidulafungin or micafungin dissolved in dimethyl sulfoxide (DMSO) is then added to each well at the desired concentration, resulting in a maximum of 1% DMSO, and the plates are placed under hypoxia at <1% 02 and 5% CO2 at 37° C. for 24 hours of culture. Each compound was tested in a concentration range.
After 24 hours, the growth medium is changed and replaced by a richer medium, DMEM (DUTSCHER) at 1 g/L glucose and 2% FBS (INNOPROT) and 1% penicillin-streptomycin (DUTSCHER). These media will have been pre-equilibrated at 37° C. in advance. The cells are then returned to culture at 37° C. under 20% 02 and 5% CO2 for 22h.
After 22 hours of reoxygenation, the potential protective effect of anidulafungin or micafungin is measured by a cell viability test using calcein AM (CORNING), which is a dye substrate. The calcein AM can easily cross the cell membrane of the viable cells. The AM ester groups mask the part of the molecule that chelates calcium. Once inside the cells, the (non-fluorescent) calcein AM is hydrolyzed to (fluorescent) calcein by endogenous esterases. The resulting calcein molecule binds to calcium inside the cell and remains trapped inside the cell. These molecules emit strong green fluorescence when subjected to […] of a particular wavelength (495 nm). Since dead cells lack esterase activity, only living cells are labelled.
This cell viability test is performed in two steps. […]

[1] = [Anidulafungin] log μM 0.1760913
[2] = [Anidulafungin] log μM 0.4771213
[3] = [Anidulafungin] log μM 0.7781513
[4] = [Anidulafungin] log μM 0.845098
[5] = [Anidulafungin] log μM 0.9542425
[6] = [Anidulafungin] log μM −0.154902
[7] = [Anidulafungin] log μM −0.30103
[8] = [Anidulafungin] log μM −0.5228788

CCCCCOc1ccc(-c2ccc(-c3ccc(C(=O)N[C@H]4C[C@@H](O)[C@@H](O)NC(=O)[C@@H]5[C@@H](O)[C@@H](C)CN5C(=O)[C@H]([C@@H](C)O)NC(=O)[C@H]([C@H](O)[C@@H](O)c5ccc(O)cc5)NC(=O)C5C[C@@H](O)CN5C(=O)[C@H]([C@@H](C)O)NC4=O)cc3)cc2)cc1 (stereo partly drawn) [Anidulafungin] ({pTerphenylCO(4''-OnC5H11)}-[Orn(4R-OH,5R-OH)]T[ξPro(4R-OH)][hTyr(3S-OH,4S-OH)]T[Pro(3S-OH,4S-Me)]; lactam 1-C)
Globalfluo assay 1 ([Anidulafungin] log μM 0): 2763556 arbitrary units
Globalfluo assay 2 ([Anidulafungin] log μM 0): 3715544 arbitrary units
Globalfluo assay 3 ([Anidulafungin] log μM 0): 3395182 arbitrary units
Mean globalfluo ([Anidulafungin] log μM 0): 3291427 arbitrary units
Survival rate (%) ([Anidulafungin] log μM 0): −1%
Globalfluo assay 1 [1]: 4125220 arbitrary units
Globalfluo assay 2 [1]: 3558016 arbitrary units
Globalfluo assay 3 [1]: 4929089 arbitrary units
Mean globalfluo [1]: 4204108 arbitrary units
Survival rate (%) [1]: 3%
Globalfluo assay 1 ([Anidulafungin] log μM 0.30103): 6944934 arbitrary units
Globalfluo assay 2 ([Anidulafungin] log μM 0.30103): 4307906 arbitrary units
Globalfluo assay 3 ([Anidulafungin] log μM 0.30103): 5211398 arbitrary units
Mean globalfluo ([Anidulafungin] log μM 0.30103): 5488079 arbitrary units
Survival rate (%) ([Anidulafungin] log μM 0.30103): 8%
Globalfluo assay 1 ([Anidulafungin] log μM 0.39794): 7911533 arbitrary units
Globalfluo assay 2 ([Anidulafungin] log μM 0.39794): 3661322 arbitrary units
Globalfluo assay 3 ([Anidulafungin] log μM 0.39794): 9914104 arbitrary units
Mean globalfluo ([Anidulafungin] log μM 0.39794): 7162320 arbitrary units
Survival rate (%) ([Anidulafungin] log μM 0.39794): 15%
Globalfluo assay 1 [2]: 5124858 arbitrary units
Globalfluo assay 2 [2]: 4212586 arbitrary units
Globalfluo assay 3 [2]: 3823154 arbitrary units
Mean globalfluo [2]: 4386866 arbitrary units
Survival rate (%) [2]: 4%
Globalfluo assay 1 ([Anidulafungin] log μM 0.60206): 7387656 arbitrary units
Globalfluo assay 2 ([Anidulafungin] log μM 0.60206): 4239781 arbitrary units
Globalfluo assay 3 ([Anidulafungin] log μM 0.60206): 4439823 arbitrary units
Mean globalfluo ([Anidulafungin] log μM 0.60206): 5355753 arbitrary units
Survival rate (%) ([Anidulafungin] log μM 0.60206): 7%
Globalfluo assay 1 ([Anidulafungin] log μM 0.69897): 10033620 arbitrary units
Globalfluo assay 2 ([Anidulafungin] log μM 0.69897): 4718363 arbitrary units
Globalfluo assay 3 ([Anidulafungin] log μM 0.69897): 7321110 arbitrary units
Mean globalfluo ([Anidulafungin] log μM 0.69897): 7357698 arbitrary units
Survival rate (%) ([Anidulafungin] log μM 0.69897): 16%
Globalfluo assay 1 [3]: 10219130 arbitrary units
Globalfluo assay 2 [3]: 11308900 arbitrary units
Globalfluo assay 3 [3]: 8342703 arbitrary units
Mean globalfluo [3]: 9956911 arbitrary units
Survival rate (%) [3]: 26%
Globalfluo assay 1 [4]: 10949560 arbitrary units
Globalfluo assay 2 [4]: 9736722 arbitrary units
Globalfluo assay 3 [4]: 8273113 arbitrary units
Mean globalfluo [4]: 9653132 arbitrary units
Survival rate (%) [4]: 25%
Globalfluo assay 1 ([Anidulafungin] log μM 0.90309): 15350400 arbitrary units
Globalfluo assay 2 ([Anidulafungin] log μM 0.90309): 11785650 arbitrary units
Globalfluo assay 3 ([Anidulafungin] log μM 0.90309): 7401575 arbitrary units
Mean globalfluo ([Anidulafungin] log μM 0.90309): 11512542 arbitrary units
Survival rate (%) ([Anidulafungin] log μM 0.90309): 32%
Globalfluo assay 1 [5]: 9960942 arbitrary units
Globalfluo assay 2 [5]: 10967130 arbitrary units
Globalfluo assay 3 [5]: 15364830 arbitrary units
Mean globalfluo [5]: 12097634 arbitrary units
Survival rate (%) [5]: 35%
Globalfluo assay 1 [6]: 3628425 arbitrary units
Globalfluo assay 2 [6]: 3463582 arbitrary units
Globalfluo assay 3 [6]: 3208621 arbitrary units
Mean globalfluo [6]: 3433543 arbitrary units
Survival rate (%) [6]: 0%
Globalfluo assay 1 [7]: 2638281 arbitrary units
Globalfluo assay 2 [7]: 3646882 arbitrary units
Globalfluo assay 3 [7]: 3842217 arbitrary units
Mean globalfluo [7]: 3375793 arbitrary units
Survival rate (%) [7]: −1%
Globalfluo assay 1 [8]: 3892260 arbitrary units
Globalfluo assay 2 [8]: 3780606 arbitrary units
Globalfluo assay 3 [8]: 4016223 arbitrary units
Mean globalfluo [8]: 3896363 arbitrary units
Survival rate (%) [8]: 2%
Globalfluo assay 1 ([Anidulafungin] log μM −1): 3282790 arbitrary units
Globalfluo assay 2 ([Anidulafungin] log μM −1): 3299018 arbitrary units
Globalfluo assay 3 ([Anidulafungin] log μM −1): 4299152 arbitrary units
Mean globalfluo ([Anidulafungin] log μM −1): 3626987 arbitrary units
Survival rate (%) ([Anidulafungin] log μM −1): 0%
Globalfluo assay 1 ([Anidulafungin] log μM −2): 5018485 arbitrary units
Globalfluo assay 2 ([Anidulafungin] log μM −2): 4417533 arbitrary units
Globalfluo assay 3 ([Anidulafungin] log μM −2): 3450400 arbitrary units
Mean globalfluo ([Anidulafungin] log μM −2): 4295473 arbitrary units
Survival rate (%) ([Anidulafungin] log μM −2): 3%
Globalfluo assay 1 ([Anidulafungin] log μM −3): 2824954 arbitrary units
Globalfluo assay 2 ([Anidulafungin] log μM −3): 3274736 arbitrary units
Globalfluo assay 3 ([Anidulafungin] log μM −3): 3773899 arbitrary units
Mean globalfluo ([Anidulafungin] log μM −3): 3291196 arbitrary units
Survival rate (%) ([Anidulafungin] log μM −3): −1%
